Patent US20100004342A1, “LFA-1 Inhibitors and Use Thereof” (priority 2003, published 2010)
“Also recorded” adds a separate entry of the source. Where two headings read alike, the source gives them in different places.

How the values were obtained:
[1] = tested on: vascular endothelial cell; settings: cited from earlier work
[2] = biological target: LFA-1 and ICAM-1 (Homo sapiens, UniProt P20701); settings: cited from earlier work
[3] = tested on: CD11a; assay: Detection of cell membrane differentiation antigen CD11a of human peripheral blood monocyte (FACS); type: cell-based; settings: for number of the cell expressing CD11a on the cell surface / rate to the total cells of the cells with expression of CD11a or CD18: peripheral blood monocytes cultured with polyamine
From the text: (§1) Human peripheral blood was collected, and peripheral blood monocytes including lymphocyte, monocyte and the like were recovered from the collected blood by specific gravity centrifugation technique using SEPARATE-L (Muto Pure Chemicals Co. LTD., Tokyo, Japan). Next, the recovered peripheral blood monocytes were suspended in PRMI1640 culture medium (Sigma chemical co., St. Louis, USA) mixed with 10% human serum (Wako Pure Chemical Industries LTD., Osaka, Japan), 0.1% L-glutamine (Invitrogen Corp., CA, USA), and 0.01% penicillin-streptomycin (Invitrogen Corp., CA, USA) and cultured in the humidified air at 37° C. containing 5% carbonic acid gas. […] Following culture for a given time, the peripheral blood monocytes were recovered from the culture medium and used in Examples 2, 4, 5, and 6.
For confirming that obtained experimental results were not derived from changes produced by the polyamines present in the culture medium and kept in contact with the cells for a long time, different peripheral blood monocytes were prepared.
(§2) The peripheral blood monocytes cultured for 16 to 80 hours by the method of Example 1 were collected from the cell culture plate so as not to damage the cells. The collected cells were washed with PBS (−) solution and then fixed using phosphate buffered saline without calcium chloride and without magnesium chloride (hereinafter, referred to as PBS (−); Invitrogen Corporation, GIBCO, Grand Island, N.Y., USA) containing 2% paraformaldehyde (Wako Pure Chemical Industries LTD, Osaka, Japan), so as not to achieve change in cell membrane antigen molecules on the cell surface of the peripheral blood monocytes. The peripheral blood monocytes were further washed, to which antibodies to the cell membrane antigen molecules were then added in an amount corresponding to 5 μL (microliter) per 500000 cells. The antibodies used here are CD2 (FITC label), CD4 (FITC), CD8 (PE label), CD11a (FITC), CD11b (PE), CD11c (PE), CD18 (FITC), CD31 (PE), CD49d (PE), CD49e (PE), CD54 (PE), CD62L (PE), CD95 (FITC), and VIA-PROBE (FITC). All of these antibodies are manufactured by PharMingen (A Becton Dickinson Company, San Jose, Calif., USA).
(§3) After each antibody was added to the cells and reacted in the dark for 20 minutes, positive rate and light intensity of the cell membrane differentiation antigen expressed in the cultured peripheral blood were measured with FACS analyzer (FACSCalibur; manufactured by Becton Dickinson) (Becton Dickinson Japan, Tokyo). The population of the peripheral blood monocytes was of interest in the measurement of florescence of the cell surface, and the measurement of all of the cultured cells was also conducted at the same time. Further, a negative control was used, and a measurement gate was set to obtain each antibody positive rate of the cells within the gate and average fluorescence intensity of the positive cells.

[4] = tested on: peripheral blood monocytes; assay: Peripheral blood monocyte adhesion to culture plate (MTT); type: cell-based, human; settings: for number of the cells adhering on the plate surface: cultured with varying concentrations of polyamines for 70 to 80 hours; for inhibition effect on cell adhesion to the cell culture plate: culture for approximately 16 to 24 hours
Description: Peripheral blood monocytes were cultured on a 96-well cell culture plate using the culture medium described above. […] Following the culture, the cell culture plate was washed three times with PBS (−) solution to remove the cells floating in the culture medium. As a result, there remained only the cells adhering on the inside bottom of the cell culture plate. […] The culture supernatant was removed. As a result, there remained only the cells firmly adhering on the inside bottom of the cell culture plate, as described above. […] Thiazolyl blue (MTT) (C18H16N5SBr) (Sigma. St. Louis, USA) was added in the final concentration of 0.35 mg/mL, and the cells were cultured at 37° C. for 2 to 4 hours until the cells were stained. MTT is taken up into cells, and the dye is discolored only in live cells. Therefore, the amount of the live cells existing can be confirmed from the amount of the dye. This means that the larger the amount of the dye is, the higher the number of the cells and the cell activity are. After the cells were sufficiently stained with MTT, the culture supernatant was removed by aspiration. The cells were dissolved by addition of 100 μl of cell lysis solution (2-propanol (isopropanol; Wako Pure Chemical Industries LTD, Osaka, Japan) mixed with 12 M (mol/L) hydrochloric acid (HCl; Wako Pure Chemical Industries LTD, Osaka, Japan)), to recover the dye in the cells. Absorbance in the cell culture plate was measured at 2 absorbance wavelengths of 570 nm and 690 nm using an absorbance reader (Titertek Multiskan MCC/340, Labsystems, Flow Laboratories Inc., USA).

[5] = tested on: vascular endothelial cells; assay: Peripheral blood monocyte adhesion to vascular endothelial cell (BCECF-AM); type: cell-based, human; settings: for number of the cells adhering to the vascular endothelial cells: cultured with 100 or 500 μM polyamine for 72 to 80 hours, compared with culture without
[6] = tested on: CD18; assay: Detection of cell membrane differentiation antigen CD18 of human peripheral blood monocyte (FACS); type: cell-based; settings: peripheral blood monocytes cultured with polyamine
From the text: as §1, with “6. […]” for “6.”
as §3, with “The population of the peripheral blood monocytes was of interest in the measurement of florescence of the cell surface, and the measurement of all of the cultured cells was also conducted at the same time.” left out

[7] = tested on: adhesion molecules (CD11b, CD11c, CD31, CD49d, CD49e, CD54, and CD62L); assay: Detection of adhesion molecules except CD11a and CD18 on human peripheral blood monocyte (FACS); type: cell-based; settings: for average fluorescence intensity of adhesion molecules (CD11b, CD11c, CD31, CD49d, CD49e, CD54, and CD62L) except CD11a and CD18: peripheral blood monocytes cultured with polyamine
From the text: as §1, §2, §3

[8] = tested on: peripheral blood monocytes; settings: for cellular cytotoxicity: peripheral blood monocytes, VIA-Probe
From the text: as §1, §2, §3

[9] = tested on: peripheral blood monocytes; assay: Number and activity of the total cultured cells (MTT), cytotoxicity check; type: cell-based, human; settings: for cellular cytotoxicity to the peripheral blood monocytes: high concentrations (up to 1 mM); for amount of the MTT dye taken up into the cells (total cultured cells): total cells in the plate, varying polyamine concentration
Description: Then, the culture supernatant in the plate was removed with the utmost caution not to soak up the cells adhering on the inside bottom of the plate. This means that all the cells present in the cell culture plate exist on the inside bottom of the plate. […] Absorbance of the cell culture medium was measured at 2 absorbance wavelengths of 570 nm and 690 nm using an absorbance reader (Titertek Multiskan MCC/340, Labsystems, Flow Laboratories Inc., USA). As a result, each polyamine concentration and the total amount of live cells of the cultured peripheral blood monocytes can be confirmed.

[10] = tested on: peripheral blood monocytes; assay: Blastogenesis of peripheral blood monocytes by Con-A or PHA (3H-thymidine); type: cell-based, human; settings: cultured with 100 μM polyamine for approximately 12 to 18 hours
Description: Following the culture, the cells were washed three times with PBS (−) to remove extracellular polyamines, The washed peripheral blood monocytes were cultured for 64 hours in culture medium (RPMI1640 containing 10% fetal bovine serum) mixed with PHA (Difco Laboratories, Detroit, Mich., USA) or Con-A (Sigma chemical co., St. Louis, USA). Then, ^3H-thymidine (Amersham) was added to the cells, followed by additional culture for 8 hours. Following the culture, the peripheral blood monocytes were recovered, and radioactivity of the cells was measured (liquid scintillation counter, LKB-1205, LKB). Since the peripheral blood monocytes activated by mitogen (PHA, Con-A, or the like) cause blast transformation, the cells take up ^3H-thymidine therein. Accordingly, function of cell activation can be measured by measuring the amount of intracellular ^3H-thymidine.

[11] = tested on: rats; settings: cited from earlier work
[12] = tested on: rats; settings: cited from earlier work; remark: listed apart in the source
[13] = tested on: functional cell membrane differentiation antigen except adhesion molecules
From the text: as §1, §2, §3

[14] = tested on: CD16, CD31, CD49d, and CD54; settings: peripheral blood monocyte accidentally infected; cultured with spermine
Description: as §2, with “The antibodies used here are CD2 (FITC label), CD4 (FITC), CD8 (PE label), CD11a (FITC), CD11b (PE), CD11c (PE), CD18 (FITC), CD31 (PE), CD49d (PE), CD49e (PE), CD54 (PE), CD62L (PE), CD95 (FITC), and VIA-PROBE (FITC). All of these antibodies are manufactured by PharMingen (A Becton Dickinson Company, San Jose, Calif., USA).” left out
as §3, with “The population of the peripheral blood monocytes was of interest in the measurement of florescence of the cell surface, and the measurement of all of the cultured cells was also conducted at the same time.” left out

[15] = tested on: Daudi cells (Burkitt lymphoma cells); settings: cultured overnight with 100 μM spermine, then IL-2 for 72 hours
[16] = tested on: intestinal mucosa; settings: contained in meal; cited from earlier work
[17] = tested on: psoriasis; settings: clinical examples, human; cited from earlier work
[18] = peripheral blood monocytes cultured with polyamine (0, 100, 500 μM) for 70 to 80 hours

Chain of LFA-1 and ICAM-1 (P20701 26-1170): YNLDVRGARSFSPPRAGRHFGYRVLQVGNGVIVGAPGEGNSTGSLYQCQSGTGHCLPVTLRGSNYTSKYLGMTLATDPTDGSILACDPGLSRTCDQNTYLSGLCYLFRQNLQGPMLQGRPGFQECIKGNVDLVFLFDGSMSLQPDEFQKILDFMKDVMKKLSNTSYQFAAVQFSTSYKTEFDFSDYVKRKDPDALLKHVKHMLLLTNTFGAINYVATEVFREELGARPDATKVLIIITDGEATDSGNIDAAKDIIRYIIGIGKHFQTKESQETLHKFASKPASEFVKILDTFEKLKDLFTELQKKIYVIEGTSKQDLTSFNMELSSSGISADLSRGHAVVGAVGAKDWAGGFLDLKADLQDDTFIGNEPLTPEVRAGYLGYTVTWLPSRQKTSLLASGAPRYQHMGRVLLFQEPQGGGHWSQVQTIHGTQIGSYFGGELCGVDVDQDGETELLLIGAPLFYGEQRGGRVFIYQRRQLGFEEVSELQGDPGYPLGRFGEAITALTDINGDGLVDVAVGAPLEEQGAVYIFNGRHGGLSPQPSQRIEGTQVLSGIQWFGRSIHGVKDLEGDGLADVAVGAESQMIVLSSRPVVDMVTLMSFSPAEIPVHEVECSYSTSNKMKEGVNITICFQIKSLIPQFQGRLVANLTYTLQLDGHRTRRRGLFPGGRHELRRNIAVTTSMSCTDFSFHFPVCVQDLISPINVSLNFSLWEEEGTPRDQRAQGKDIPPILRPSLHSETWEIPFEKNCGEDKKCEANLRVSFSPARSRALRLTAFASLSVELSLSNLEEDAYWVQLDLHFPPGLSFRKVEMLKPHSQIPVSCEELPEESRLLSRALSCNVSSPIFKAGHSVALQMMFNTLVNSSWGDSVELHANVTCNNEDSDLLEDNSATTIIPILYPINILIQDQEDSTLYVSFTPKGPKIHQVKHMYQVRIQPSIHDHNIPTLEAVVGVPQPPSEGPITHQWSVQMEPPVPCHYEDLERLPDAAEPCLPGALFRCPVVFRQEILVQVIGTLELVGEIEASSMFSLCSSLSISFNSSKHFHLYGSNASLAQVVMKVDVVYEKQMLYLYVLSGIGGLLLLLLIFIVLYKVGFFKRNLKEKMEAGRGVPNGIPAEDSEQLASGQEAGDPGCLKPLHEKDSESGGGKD
Chain of LFA-1 and ICAM-1 (P05107 23-769 partner): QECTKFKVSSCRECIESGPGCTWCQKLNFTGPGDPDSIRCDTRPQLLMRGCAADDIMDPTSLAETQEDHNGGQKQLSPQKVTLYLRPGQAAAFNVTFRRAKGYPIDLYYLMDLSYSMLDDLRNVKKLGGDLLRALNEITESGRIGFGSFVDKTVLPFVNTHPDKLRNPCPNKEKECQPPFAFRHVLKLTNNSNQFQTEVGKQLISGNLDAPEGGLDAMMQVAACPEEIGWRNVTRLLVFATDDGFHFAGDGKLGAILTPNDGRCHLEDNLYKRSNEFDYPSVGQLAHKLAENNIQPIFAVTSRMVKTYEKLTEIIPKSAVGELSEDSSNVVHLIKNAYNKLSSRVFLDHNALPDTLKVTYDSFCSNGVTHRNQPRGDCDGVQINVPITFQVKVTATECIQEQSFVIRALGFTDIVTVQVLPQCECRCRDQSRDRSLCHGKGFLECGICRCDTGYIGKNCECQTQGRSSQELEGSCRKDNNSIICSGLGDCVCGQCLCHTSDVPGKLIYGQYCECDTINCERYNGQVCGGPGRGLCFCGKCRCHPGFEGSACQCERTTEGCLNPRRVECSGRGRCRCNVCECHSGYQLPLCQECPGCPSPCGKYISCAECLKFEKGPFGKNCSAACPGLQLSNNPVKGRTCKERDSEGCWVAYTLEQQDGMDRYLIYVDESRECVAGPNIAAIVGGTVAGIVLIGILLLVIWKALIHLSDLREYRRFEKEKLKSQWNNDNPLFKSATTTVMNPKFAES

Row | Molecule | average fluorescence intensity of CD11a [3, 18] | number of the cells adhering on the plate surface [4] | number of the cells adhering to the vascular endothelial cells [5] | number of the cell expressing CD11a on the cell surface [3] | rate to the total cells of the cells with expression of CD11a or CD18 [3] | average fluorescence intensity of CD18 [6] | average fluorescence intensity of adhesion molecules (CD11b, CD11c, CD31, CD49d, CD49e, CD54, and CD62L) except CD11a and CD18 [7] | cellular cytotoxicity [8] | inhibition effect on cell adhesion to the cell culture plate [4] | cellular cytotoxicity to the peripheral blood monocytes [9] | amount of the MTT dye taken up into the cells (total cultured cells) [9] | blastogenesis by Con-A or PHA [10] | other results
1 | CC(C)c1c(C(=O)Nc2ccccc2)c(-c2ccccc2)c(-c2ccc(F)cc2)n1CC[C@@H](O)C[C@@H](O)CC(=O)O [atorvastatin] | – | – | – | – | – | – | – | – | – | – | – | – | monocyte adhesion to vascular endothelial cell [1]: inhibits monocyte adhesion to vascular endothelial cell
2 | CC[C@H](C)C(=O)O[C@H]1C[C@@H](C)C=C2C=C[C@H](C)[C@H](CC[C@@H]3C[C@@H](O)CC(=O)O3)[C@H]21 [lovastatin] | – | – | – | – | – | – | – | – | – | – | – | – | adhesion between LFA-1 and ICAM-1 [2]: blocks adhesion between LFA-1 and ICAM-1
3 | Cl.Cl.NCCCCN [putrescine, 1,4-Butanediamine dihydrochloride, reference compound] | not evident | not inhibited | not inhibited | – | – | – | – | – | – | – | – | – | –
4 | NCCCCNCCCN [spermidine, N-aminobutyl-1,3-diaminopropane] | inhibited dependently on spermidine concentration | decreased with increase of spermine and spermidine concentrations | – | increased | not decreased | decreased | not decreased | no cellular cytotoxicity | not exhibited | no cellular cytotoxicity | no reduction | rather enhanced | 50% lethal dose (LD50) ([11]; rats, acute toxicity test): 600 mg/kg of body weight; amount up to which no side effect is observed ([12]; subacute toxicity test, administration for 6 weeks): up to 83 mg/kg of body weight/day
5 | NCCCNCCCCNCCCN [spermine, 4,9-diazadodecane-1,12-diamine] | reduced as spermine concentration was increased; also recorded: strongest | decreased with increase of spermine and spermidine concentrations | low | increased | not decreased | decreased with increase of spermine concentration | not decreased | no cellular cytotoxicity | not exhibited | no cellular cytotoxicity | no change | rather enhanced | average fluorescence intensity of CD11a (decreasing effect) ([3]; cells cultured for 20 to 26 hours): not observed; number of the cells having strong fluorescent intensity (CD11a histogram) ([3]; cells supplemented with spermine): decreased; average fluorescence intensity of CD11a ([3]; cultured with spermine 16 to 24 hours, washed, then cultured without spermine 48 to 56 hours): decrease of the average fluorescence intensity of CD11a; expression rate of adhesion molecules (expression positive rate) ([7]; cells cultured with spermine): not decreased; average fluorescence intensity of CD62L ([7]; peripheral blood monocytes cultured with spermine): obviously increased dependently on spermine concentration; average fluorescence intensity of cell membrane differentiation antigens other than the adhesion molecules ([13]; FIG. 8, cells cultured with spermine): no decrease; expression rate of cell membrane differentiation antigen except adhesion molecules (expression positive rate) ([13]; cells cultured with spermine): not decreased; dead cells (VIA-Probe) ([8]; spermine concentration that most strongly decreased CD11a and CD18 fluorescence): not increased; expression of cell membrane differentiation antigen such as CD16, 31, 49d, and 54 (average fluorescence intensity) [14]: markedly decreased; inhibition of cell adhesion to the inside bottom of the culture plate ([4]; plate inverted and centrifuged (500 rpm, 5 minutes) after 70 to 82 hours culture): more remarkable result of the inhibition; number of the adhering cells (vascular endothelial cells) ([5]; culture with 500 μM spermine for 20 hours): not decreased; cellular cytotoxicity (LAK activity) of the peripheral blood monocytes [15]: reduced; concentration in meal at which it has toxicity [16]: ≥ 0.2%; 50% lethal dose (LD50) ([11]; rat, in vivo): 600 mg/kg of body weight; amount up to which no side effect is observed ([12]; rat, in vivo): up to 19 mg/kg of body weight/day
6 | efalizumab: a CD11a antibody | – | – | – | – | – | – | – | – | – | – | – | – | psoriasis symptoms [17]: improved
